The text below walks through data of US20110150774A1, “SCREENING FOR MODULATORS OF CES1 AND/OR CES3 FOR THE TREATMENT OF ACNE, OF SEBORRHOEIC DERMATITIS OR OF HYPERSEBORRHOEA” (GALDERMA RESEARCH & DEVELOPMENT, priority 2008, published 2011).

Common to all, as to format: in vivo
One test relates to CES1. As to the kind of experiment: CES1 gene expression in rat sebaceous gland (epidermal split) after topical PPARgamma agonist, real-time PCR. The settings on record: topical 1% in acetone, female FUZZY rat, mRNA standardized to 18S, versus carrier group; for CES1 Relative induction - kinetics (hours): 0: 0 hours; for CES1 Relative induction - kinetics (hours): 8: 8 hours; for CES1 Relative induction - kinetics (hours): 24: 24 hours; for CES1 Relative induction - kinetics (hours): 48: 48 hours; for CES1 Relative induction - kinetics (hours): 96: 96 hours. From the text: (§1) Materials and methods: • Animals: Species: rat • Strain: Ico:HSd:FUZZY-fz • Gender: female • Age: 10 weeks • Number per batch: 40 (8 animals per group) • Treatment: Route of administration: topical • Compound/batch: PPARgamma agonists: • A: 5-{4-[2-(methylpyridin-2-ylamino)ethoxy]benzyl}thiazolidine-2,4-dione • B: 2-(methoxyethoxymethoxy)naphthalene-2-carboxylic acid [4′-(2,4-dioxothiazolidin-5-ylmethyl)biphenyl-3-ylmethyl]methylamide […] • C: (S)-2-ethoxy-3-{4-[6-(3-heptyl-1-methylureido)pyridin-2-yl]phenyl}propionic acid • Doses: 1% • Carrier: acetone (001) • Duration: 96 hours Method of evaluation: The animals are weighed at the beginning and at the end of the study. Skin biopsies are taken (6 samples of skin excised per rat) in order to analyze the expression of the genes (RNA extraction, reverse transcriptase and real-time PCR). The samples are stored at 4° C. overnight before incubation in 1 M sodium bromide (NaBr) for 2 hours at 37° C. After incubation, the samples are separated into epidermis or dermis. The epidermal samples are stored at 20° C. Under these conditions, the sebaceous glands are in the epidermal split. PCRs are carried out, beginning with the cDNAs originating from the epidermal splits containing sebaceous glands from control rats or rats treated with a PPARγ agonist: the mRNA is extracted using a column and quantified. The quality of the mRNAs is measured and is represented by the 18S/28S ratio. The results are standardized with respect to 18S, expressed as relative induction versus untreated animals (carrier group). The statistical analysis is obtained using internal software based on a modified Monte Carlo statistical analysis.
(Real-time PCR tracks product formation cycle by cycle.)

Test [1] deals with CES3. Description: CES3 gene expression in rat sebaceous gland (epidermal split) after topical PPARgamma agonist, real-time PCR. The settings on record: topical 1% in acetone, female FUZZY rat, mRNA standardized to 18S, versus carrier group; for CES3 Relative induction - kinetics (hours): 0: 0 hours; for CES3 Relative induction - kinetics (hours): 8: 8 hours; for CES3 Relative induction - kinetics (hours): 24: 24 hours; for CES3 Relative induction - kinetics (hours): 48: 48 hours; for CES3 Relative induction - kinetics (hours): 96: 96 hours.
Source text: as §1, with “Ico:Hsd FUZZY-fz” for “Ico:HSd:FUZZY-fz”

Test [2] deals with CES3. As to the kind of experiment: CES3 expression in Fuzzy rat epidermal split after 8 days of topical treatment, Affymetrix transcriptome analysis. The following applies: topical 1% once a day for 8 days, female FUZZY rat. As to the method: The studies are carried out in female Fuzzy rats (Hsd: FUZZY-fz) 10 weeks old at the beginning of the study. The animals are treated at a dose of 1% (PPARg agonist Rosiglitazone in solution in acetone) once a day for 8 days. Two hours after the final treatment, the animals are sacrificed by euthanasia and the skin on the back is removed. After incubation in […], the epidermis carrying the sebaceous glands is detached from the dermis (epidermal split). After grinding of the samples, the mRNA is prepared using Qiagen columns, in accordance with the suppliers' instructions. The material thus prepared is subjected to large-scale transcriptome analysis on an Affymetrix platform. The data are subsequently standardized and, after statistical analysis, the results produced are expressed in arbitrary expression units (see below) accompanied, for each piece of data, by a statistical value for presence of the transcript (presence=1; absence=0).

Consider `CCCCCCCNC(=O)N(C)c1cccc(-c2ccc(C[C@H](OCC)C(=O)O)cc2)n1` [C, (S)-2-ethoxy-3-{4-[6-(3-heptyl-1-methylureido)pyridin-2-yl]phenyl}propionic acid], for which, in the test with CES1, the “CES1 Relative induction - kinetics (hours): 0” value worked out at 1, the “CES1 Relative induction - kinetics (hours): 8” value is on record as 0.55, the “CES1 Relative induction - kinetics (hours): 24” value was 0.38 and the “CES1 Relative induction - kinetics (hours): 48” value was determined as 0.04. Also, in the test on CES1, the “CES1 Relative induction - kinetics (hours): 96” value is reported as 0.03. Besides, in the test on CES3 [1], the “CES3 Relative induction - kinetics (hours): 0” value turned out to be 1, the “CES3 Relative induction - kinetics (hours): 8” value stood at 0.33, the “CES3 Relative induction - kinetics (hours): 24” value amounted to 0.12 and the “CES3 Relative induction - kinetics (hours): 48” value is recorded as 0.02. For the same compound, the “CES3 Relative induction - kinetics (hours): 96” value with CES3 [1] was 0.00.

As for `CN(CCOc1ccc(CC2SC(=O)NC2=O)cc1)c1ccccn1` (stereo not shown) [Rosiglitazone], the “Significance of the expression after treatment with 1% Rosiglitazone (presence =1, absence =0)” value with CES3 [2] (control condition 1) came to 0. Also, the “Expression after treatment with 1% Rosiglitazone (CES3, 1370363_at)” value with CES3 [2] (control condition 443) was 15 arbitrary expression units.

For `CN(CCOc1ccc(CC2SC(=O)NC2=O)cc1)c1ccccn1` (stereo not shown) [A, 5-{4-[2-(methylpyridin-2-ylamino)ethoxy]benzyl}thiazolidine-2,4-dione], in the test on CES1, the “CES1 Relative induction - kinetics (hours): 0” value turned out to be 1, the “CES1 Relative induction - kinetics (hours): 8” value stood at 1.93, the “CES1 Relative induction - kinetics (hours): 24” value is reported as 1.01 and the “CES1 Relative induction - kinetics (hours): 48” value stood at 0.45. For the same compound, in the test with CES1, the “CES1 Relative induction - kinetics (hours): 96” value is on record as 0.13. In the test on CES3 [1], the “CES3 Relative induction - kinetics (hours): 0” value came out at 1, the “CES3 Relative induction - kinetics (hours): 8” value stood at 1.72, the “CES3 Relative induction - kinetics (hours): 24” value came to 0.46 and the “CES3 Relative induction - kinetics (hours): 48” value is on record as 0.22. Moreover, the “CES3 Relative induction - kinetics (hours): 96” value in the test with CES3 [1] was 0.07.
